From patent USRE50528E1, “Compounds and compositions for modulating EGFR mutant kinase activities” (Yuhan Corporation, priority 2014, dated 2025) come the findings set out here.

In one test the target is T1, EGFR mutant T790M (Homo sapiens, UniProt P00533, T790M).
T1 construct: truncated human JAK3, EGFR mutants such as del E746-A750; purchased Carna Biosciences
The test can be described thus: Kinase inhibition assay, EGFR mutant T790M.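 Note: truncated human EGFR mutant enzyme preincubated two hours with compound, then ATP plus ULight-PolyGT peptide for one hour, Europium-labeled antibody LANCE detection, IC50.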 The conditions noted are these: biochemical potency.

For test [1], the target named is T2, EGFR mutant Del19 (E746-A750) (Homo sapiens, UniProt P00533, DEL746-750).
T2 construct: truncated human JAK3, EGFR mutants such as del E746-A750; purchased Carna Biosciences
T2 sequence (P00533 with tags, fused parts or gaps DEL746-750 limits assumed): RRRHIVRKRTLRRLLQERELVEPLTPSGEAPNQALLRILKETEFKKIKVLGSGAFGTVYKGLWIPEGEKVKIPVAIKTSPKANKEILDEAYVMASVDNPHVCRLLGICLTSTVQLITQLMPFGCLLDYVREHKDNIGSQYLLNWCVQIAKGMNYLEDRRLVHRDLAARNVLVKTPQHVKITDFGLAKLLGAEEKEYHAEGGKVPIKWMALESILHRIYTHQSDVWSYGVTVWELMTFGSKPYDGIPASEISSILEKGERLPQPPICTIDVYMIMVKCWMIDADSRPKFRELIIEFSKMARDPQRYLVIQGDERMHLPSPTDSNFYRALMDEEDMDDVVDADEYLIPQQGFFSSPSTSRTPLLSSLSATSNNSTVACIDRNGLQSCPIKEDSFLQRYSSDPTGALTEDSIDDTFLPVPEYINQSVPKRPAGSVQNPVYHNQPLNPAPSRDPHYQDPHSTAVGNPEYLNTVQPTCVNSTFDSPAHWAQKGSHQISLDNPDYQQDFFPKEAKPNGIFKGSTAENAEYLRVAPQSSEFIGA
The test can be described thus: Kinase inhibition assay, EGFR del E746-A750.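 Note: truncated human EGFR mutant kinase, two-hour preincubation with compound, then one-hour reaction with ATP and ULight-PolyGT peptide, LANCE Europium-antibody phosphorylation readout, IC50.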 The conditions noted are these: read-out: EGFR mutants Del19 (E746-A750). Format: biochemical.

Another test concerns the target T3, EGFR mutant L858R (Homo sapiens, UniProt P00533, L858R).
T3 construct: truncated human JAK3, EGFR mutants such as del E746-A750; purchased Carna Biosciences
The test can be described thus: Kinase inhibition assay, EGFR L858R.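 Note: truncated human EGFR L858R kinase with compound preincubation, ULight-PolyGT peptide phosphorylation read by Europium-antibody Lance detection, IC50.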 It counts as biochemical. Conditions: read-out: EGFR mutants L858R.

The next test deals with T4, EGFR mutant L858R/T790M (Homo sapiens, UniProt P00533, L858R/T790M).
T4 construct: truncated human JAK3, EGFR mutants such as del E746-A750; purchased Carna Biosciences
T4 sequence (P00533 669-1210 T790M/L858R limits assumed): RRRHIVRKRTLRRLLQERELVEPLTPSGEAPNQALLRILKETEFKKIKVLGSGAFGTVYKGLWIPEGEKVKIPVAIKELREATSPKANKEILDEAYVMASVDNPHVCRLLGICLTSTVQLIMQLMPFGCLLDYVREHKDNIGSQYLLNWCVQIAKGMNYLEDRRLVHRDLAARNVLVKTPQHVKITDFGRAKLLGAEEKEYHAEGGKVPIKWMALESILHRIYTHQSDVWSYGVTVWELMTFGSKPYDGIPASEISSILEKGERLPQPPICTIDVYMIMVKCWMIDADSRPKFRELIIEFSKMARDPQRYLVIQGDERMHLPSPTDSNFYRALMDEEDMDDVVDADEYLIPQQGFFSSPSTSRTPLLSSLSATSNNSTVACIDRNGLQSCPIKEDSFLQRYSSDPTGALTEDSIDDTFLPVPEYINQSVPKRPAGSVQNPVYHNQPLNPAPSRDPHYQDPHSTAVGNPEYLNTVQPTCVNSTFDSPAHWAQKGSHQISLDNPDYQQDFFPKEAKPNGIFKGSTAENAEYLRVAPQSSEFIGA
The test can be described thus: Kinase inhibition assay, EGFR L858R/T790M.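 Note: truncated human enzyme preincubated two hours with compound, then one hour with one millimolar ATP and ULight-PolyGT peptide, Europium-labeled antibody detection, IC50.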 It counts as biochemical. The conditions noted are these: read-out: EGFR mutants L858R/T790M.

Another test addresses T5, EGFR mutant Del19/T790M (Homo sapiens, UniProt P00533, DEL746-750/T790M).
T5 construct: truncated human JAK3, EGFR mutants such as del E746-A750; purchased Carna Biosciences
Description: Kinase inhibition assay, EGFR del E746-A750/T790M. It counts as biochemical. The conditions noted are these: read-out: EGFR mutants Del19/T790M.

The next test concerns the target T6, JAK3 (Homo sapiens, UniProt P52333).
T6 construct: EGFR and JAK3 (JH1domain-catalytic) kinases, and mutant forms thereof; purchased Carna Biosciences
Description: Kinase inhibition assay, JAK3.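 Note: IC50 against purified truncated human JAK3 preincubated with compound, then reacted with ATP and ULight-Jak1 peptide, phosphorylation read by Europium-labeled antibody LANCE detection.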 Conditions: biochemical potency.

The target of the next test is T7, SYK (Homo sapiens, UniProt P43405).
T7 construct: Purified human, full-length SYK, KDR; purchased Carna Biosciences
The test can be described thus: Kinase inhibition assay, SYK.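 Note: purified full-length human SYK pre-incubated 30 min with compound, then ULight-TK peptide phosphorylation for 1 h, detected with Europium-labeled antibody in Lance buffer.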 It counts as biochemical. Conditions: biochemical potency.

The target in the next test is T8, KDR (Homo sapiens, UniProt P35968).
T8 construct: Purified human, full-length SYK, KDR; purchased Carna Biosciences
T8 sequence (P35968 20-1356): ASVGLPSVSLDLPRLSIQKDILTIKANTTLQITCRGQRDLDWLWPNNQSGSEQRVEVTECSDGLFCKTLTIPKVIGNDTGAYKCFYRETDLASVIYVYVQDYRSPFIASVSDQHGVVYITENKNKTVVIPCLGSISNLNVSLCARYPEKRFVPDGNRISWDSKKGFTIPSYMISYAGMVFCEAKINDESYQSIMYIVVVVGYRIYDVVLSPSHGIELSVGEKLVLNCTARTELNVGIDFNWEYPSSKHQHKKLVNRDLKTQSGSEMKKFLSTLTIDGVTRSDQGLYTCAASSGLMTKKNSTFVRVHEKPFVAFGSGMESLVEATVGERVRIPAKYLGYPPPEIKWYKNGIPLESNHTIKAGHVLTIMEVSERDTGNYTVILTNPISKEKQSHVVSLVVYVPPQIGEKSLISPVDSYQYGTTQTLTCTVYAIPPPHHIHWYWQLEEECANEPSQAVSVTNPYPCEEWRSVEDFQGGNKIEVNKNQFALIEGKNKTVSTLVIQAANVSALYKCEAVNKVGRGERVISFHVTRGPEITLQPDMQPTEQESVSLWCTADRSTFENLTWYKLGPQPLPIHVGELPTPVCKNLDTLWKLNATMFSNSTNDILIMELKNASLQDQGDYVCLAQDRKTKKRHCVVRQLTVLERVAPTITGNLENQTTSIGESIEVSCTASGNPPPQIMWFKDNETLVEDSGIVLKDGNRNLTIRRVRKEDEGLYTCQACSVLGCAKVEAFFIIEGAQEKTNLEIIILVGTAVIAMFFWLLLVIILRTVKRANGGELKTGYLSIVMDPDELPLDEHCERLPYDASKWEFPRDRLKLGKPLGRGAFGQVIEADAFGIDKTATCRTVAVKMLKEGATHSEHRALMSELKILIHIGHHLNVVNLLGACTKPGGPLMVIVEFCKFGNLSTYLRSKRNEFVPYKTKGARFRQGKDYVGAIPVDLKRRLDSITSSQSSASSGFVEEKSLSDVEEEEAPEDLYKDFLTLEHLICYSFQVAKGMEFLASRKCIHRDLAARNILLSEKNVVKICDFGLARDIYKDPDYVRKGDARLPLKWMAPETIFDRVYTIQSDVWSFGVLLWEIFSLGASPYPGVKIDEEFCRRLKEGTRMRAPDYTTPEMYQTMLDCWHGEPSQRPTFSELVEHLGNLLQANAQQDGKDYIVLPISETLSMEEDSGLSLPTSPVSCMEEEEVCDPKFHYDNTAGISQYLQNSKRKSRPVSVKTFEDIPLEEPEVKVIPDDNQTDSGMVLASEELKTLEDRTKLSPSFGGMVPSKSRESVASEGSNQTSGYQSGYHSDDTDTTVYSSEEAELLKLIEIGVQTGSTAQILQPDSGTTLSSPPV
The test can be described thus: Kinase inhibition assay, KDR.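 Note: purified full-length human KDR, 30 min preincubation with compound, then 1 h reaction with ATP and Ulight-Jak1 peptide substrate, phosphorylation read by Lance Europium antibody detection.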 Conditions: biochemical potency. It counts as biochemical.

The subject of the next test is H2073 (EGFR wildtype). The test can be described thus: Cell viability assay, H2073.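 Note: NSCLC cell line whose survival relies on wildtype EGFR, treated with serially diluted compound, cytotoxic effect judged from remaining cell viability.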 Format: cell-based. The conditions noted are these: NCI-H2073; cellular potency; 72-hour incubation; ATPLite. (Cellular ATP, detected with luciferase, serves as a proxy for viable cell number.)
Test [2] deals with PC9 (EGFR del E746-A750 mutant). Description: Cell viability assay, PC9.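 For all read-outs here: NSCLC PC9 cells, whose viability relies on EGFR del E746-A750, exposed to serially diluted compound for 72 h at 37 °C, ATPLite read-out, IC50, H2073 as EGFR wildtype line.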 It counts as cell-based. The conditions noted are these: for Selectivity over wildtype, Wildtype vs mutant H2073/PC9 (fold): cellular potency ratio; for IC50: cellular potency, 72-hour incubation, ATPLite, read-out: EGFR Mutants PC9.
In test [3] the test system is H1975 (EGFR L858R/T790M mutant). The test can be described thus: Cell viability assay, H1975.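 For all read-outs here: NSCLC cells whose survival relies on EGFR L858R/T790M, exposed 72 h to serially diluted compound, ATP-based viability readout, with the H2073 line (wildtype EGFR dependent) as wildtype comparator.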 Conditions: for IC50: Homo sapiens, NCI-H1975, cellular potency, 72-hour incubation, ATPLite, read-out: EGFR Mutants H1975; for Selectivity over wildtype, Wildtype vs mutant H2073/H1975 (fold): cellular potency ratio. Format: cell-based.

Some results are limits rather than exact numbers.

T3 sequence (P00533 669-1210 L858R limits assumed): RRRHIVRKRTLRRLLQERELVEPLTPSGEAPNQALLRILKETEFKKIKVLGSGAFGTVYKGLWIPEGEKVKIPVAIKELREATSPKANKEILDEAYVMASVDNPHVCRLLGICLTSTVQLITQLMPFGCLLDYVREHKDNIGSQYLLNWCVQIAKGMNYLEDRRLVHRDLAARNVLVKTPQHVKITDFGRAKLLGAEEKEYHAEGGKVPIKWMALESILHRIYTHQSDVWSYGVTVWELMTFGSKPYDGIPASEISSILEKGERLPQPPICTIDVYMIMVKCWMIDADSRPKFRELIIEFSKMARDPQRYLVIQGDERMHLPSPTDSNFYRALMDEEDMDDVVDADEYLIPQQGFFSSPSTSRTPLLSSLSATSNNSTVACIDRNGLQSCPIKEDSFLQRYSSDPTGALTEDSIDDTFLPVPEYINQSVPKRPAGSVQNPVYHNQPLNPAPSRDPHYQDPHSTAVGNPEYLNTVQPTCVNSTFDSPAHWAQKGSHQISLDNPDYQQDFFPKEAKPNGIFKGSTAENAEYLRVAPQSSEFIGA
T1 sequence (P00533 669-1210 T790M limits assumed): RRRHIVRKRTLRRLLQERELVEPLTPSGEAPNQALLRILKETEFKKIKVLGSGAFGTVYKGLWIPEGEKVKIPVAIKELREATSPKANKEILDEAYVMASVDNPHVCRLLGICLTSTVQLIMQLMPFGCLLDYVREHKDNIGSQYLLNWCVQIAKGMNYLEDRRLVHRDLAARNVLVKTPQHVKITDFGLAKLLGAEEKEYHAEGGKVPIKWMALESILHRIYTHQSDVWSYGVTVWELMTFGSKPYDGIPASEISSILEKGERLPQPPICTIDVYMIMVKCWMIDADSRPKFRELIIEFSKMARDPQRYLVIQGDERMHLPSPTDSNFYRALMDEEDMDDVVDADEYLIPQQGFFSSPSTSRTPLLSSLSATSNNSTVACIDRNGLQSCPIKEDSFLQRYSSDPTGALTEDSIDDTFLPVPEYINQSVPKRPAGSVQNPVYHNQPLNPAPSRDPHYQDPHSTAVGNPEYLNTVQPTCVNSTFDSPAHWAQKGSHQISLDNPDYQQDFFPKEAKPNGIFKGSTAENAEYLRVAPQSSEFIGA
T6 sequence (P52333 822-1111 limits assumed): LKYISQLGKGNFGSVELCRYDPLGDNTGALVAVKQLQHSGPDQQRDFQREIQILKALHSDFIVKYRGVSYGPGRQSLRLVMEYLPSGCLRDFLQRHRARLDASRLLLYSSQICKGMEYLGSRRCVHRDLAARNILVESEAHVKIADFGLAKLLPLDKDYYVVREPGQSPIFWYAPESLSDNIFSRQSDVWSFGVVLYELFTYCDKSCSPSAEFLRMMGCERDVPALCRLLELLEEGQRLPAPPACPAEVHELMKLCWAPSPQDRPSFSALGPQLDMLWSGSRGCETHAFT
T5 sequence (P00533 with tags, fused parts or gaps DEL746-750/T790M limits assumed): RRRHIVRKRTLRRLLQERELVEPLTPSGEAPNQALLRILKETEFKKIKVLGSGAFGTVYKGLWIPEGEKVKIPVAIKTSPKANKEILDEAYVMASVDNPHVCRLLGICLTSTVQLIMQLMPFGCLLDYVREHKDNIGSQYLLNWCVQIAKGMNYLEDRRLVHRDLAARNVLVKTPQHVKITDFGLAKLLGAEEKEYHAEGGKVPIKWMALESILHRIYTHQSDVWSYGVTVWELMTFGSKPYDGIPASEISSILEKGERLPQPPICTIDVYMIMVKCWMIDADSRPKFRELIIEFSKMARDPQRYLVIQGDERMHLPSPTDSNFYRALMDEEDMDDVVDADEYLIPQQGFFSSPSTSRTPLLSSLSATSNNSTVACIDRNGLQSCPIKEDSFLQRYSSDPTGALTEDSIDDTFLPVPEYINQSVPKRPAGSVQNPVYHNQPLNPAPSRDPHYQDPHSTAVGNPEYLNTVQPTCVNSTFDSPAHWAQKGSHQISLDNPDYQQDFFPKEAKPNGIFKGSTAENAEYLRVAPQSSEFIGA

Turning to `C=CC(=O)Nc1cc(Nc2ncc(C)c(-n3cc(CN(C)C)c(C)n3)n2)c(OC)cc1N1CCOCC1` [Compound 75, N-(5-(4-(4-((dimethylamino)methyl)-3-methyl-1H-pyrazol-1-yl)-5-methylpyrimidin-2-ylamino)-4-methoxy-2-morpholinophenyl)acrylamide], the IC50 (at EGFR mutant T790M; in test [1]; on EGFR mutant L858R; at EGFR mutant L858R/T790M; on EGFR mutant Del19/T790M; on JAK3) was less than 0.02 µM throughout. Besides, the IC50 on SYK is 0.02 to 0.2 µM; at KDR, more than 1 µM; in the test on H2073 (EGFR wildtype), more than 1 µM; in [2] it was 0.02 to 0.2 µM; in test [3], 0.02 to 0.2 µM. Moreover, in test [2], the “Selectivity over wildtype, Wildtype vs mutant H2073/PC9 (fold)” value (“Selectivity … vs mutant H2073/PC9 (fold)” below) is listed as 101-200 fold. Further, in test [3], the “Selectivity over wildtype, Wildtype vs mutant H2073/H1975 (fold)” value (“Selectivity … vs mutant H2073/H1975 (fold)” below) is given as 101-200 fold.
For the compound `C=CC(=O)Nc1cc(Nc2ncc(Cl)c(-n3cc(CN4CCC4)c(C)n3)n2)c(OC)cc1N1CCOCC1` [Compound 50, N-(5-(4-(4-(azetidin-1-ylmethyl)-3-methyl-1H-pyrazol-1-yl)-5-chloropyrimidin-2-ylamino)-4-methoxy-2-morpholinophenyl)acrylamide], the IC50 at EGFR mutant T790M was less than 0.02 µM; in [1] it was less than 0.02 µM; at EGFR mutant L858R, 0.02 to 0.2 µM; at EGFR mutant L858R/T790M, less than 0.02 µM; on EGFR mutant Del19/T790M, less than 0.02 µM; against JAK3, less than 0.02 µM. Also, the IC50 on SYK is more than 1 µM; against KDR, more than 1 µM; in the test with H2073 (EGFR wildtype) it was more than 1 µM; in test [2], 0.02 to 0.2 µM; in test [3], 0.02 to 0.2 µM. In [2], the “Selectivity … vs mutant H2073/PC9 (fold)” value is 101-200 fold. For the same compound, the “Selectivity … vs mutant H2073/H1975 (fold)” value in [3] is on record as more than 200 fold.
As for `C=CC(=O)Nc1cc(Nc2nccc(-n3cc(CN(C)C)c(C)n3)n2)c(OC)cc1N1CCN(CCF)CC1` [Compound 79, N-(5-(4-(4-((dimethylamino)methyl)-3-methyl-1H-pyrazol-1-yl)pyrimidin-2-ylamino)-2-(4-(2-fluoroethyl)piperazin-1-yl)-4-methoxyphenyl)acrylamide], the IC50 (against EGFR mutant T790M; in test [1]; at EGFR mutant L858R; on EGFR mutant L858R/T790M; on EGFR mutant Del19/T790M; against JAK3) was less than 0.02 µM throughout. Further, the IC50 was 0.201 to 1 µM against SYK; more than 1 µM against KDR; more than 1 µM in the test with H2073 (EGFR wildtype); 0.02 to 0.2 µM in [2]; 0.02 to 0.2 µM in test [3]. Also, in [2], the “Selectivity … vs mutant H2073/PC9 (fold)” value was 101-200 fold. Besides, the “Selectivity … vs mutant H2073/H1975 (fold)” value in test [3] is 101-200 fold.
On to `C=CC(=O)Nc1cc(Nc2ncc(F)c(-n3cc(CN4CCC4)c(C)n3)n2)c(OC)cc1N1CCOCC1` [Compound 62, N-(5-(4-(4-(azetidin-1-ylmethyl)-3-methyl-1H-pyrazol-1-yl)-5-fluoropyrimidin-2-ylamino)-4-methoxy-2-morpholinophenyl)acrylamide], for which the IC50 (against EGFR mutant T790M; in test [1]; on EGFR mutant L858R; on EGFR mutant L858R/T790M; on EGFR mutant Del19/T790M; against JAK3) was less than 0.02 µM throughout. The IC50 against SYK is more than 1 µM; at KDR, more than 1 µM; with H2073 (EGFR wildtype), more than 1 µM; in test [2], 0.02 to 0.2 µM; in test [3], 0.02 to 0.2 µM. The “Selectivity … vs mutant H2073/PC9 (fold)” value in test [2] is more than 200 fold. The “Selectivity … vs mutant H2073/H1975 (fold)” value in [3] was more than 200 fold.
Take `C=CC(=O)Nc1cc(Nc2ncc(C)c(-n3cc(CN4CCC4)cn3)n2)c(OC)cc1N1CCOCC1` [Compound 32, N-(5-(4-(4-(azetidin-1-ylmethyl)-1H-pyrazol-1-yl)-5-methylpyrimidin-2-ylamino)-4-methoxy-2-morpholinophenyl)acrylamide]: the IC50 (at EGFR mutant T790M; in test [1]; at EGFR mutant L858R; on EGFR mutant L858R/T790M; on EGFR mutant Del19/T790M; against JAK3) was less than 0.02 µM each time. The IC50 at SYK is 0.201 to 1 µM; against KDR it was more than 1 µM; in the test on H2073 (EGFR wildtype) it was more than 1 µM; in test [2], 0.201 to 1 µM; in [3] it was 0.02 to 0.2 µM. The “Selectivity … vs mutant H2073/PC9 (fold)” value in test [2] was 20-100 fold. Further, the “Selectivity … vs mutant H2073/H1975 (fold)” value in test [3] is 20-100 fold.
For the compound `C=CC(=O)Nc1cc(Nc2nccc(-n3cc(CN4CCC4)c(C)n3)n2)c(OC)cc1N1CCN(C)CC1` [Compound 17, N-(5-(4-(4-(azetidin-1-ylmethyl)-3-methyl-1H-pyrazol-1-yl)pyrimidin-2-ylamino)-4-methoxy-2-(4-methylpiperazin-1-yl)phenyl)acrylamide], the IC50 (at EGFR mutant T790M; in [1]; at EGFR mutant L858R; on EGFR mutant L858R/T790M; on EGFR mutant Del19/T790M; on JAK3) was less than 0.02 µM in each case. The IC50 against SYK and on KDR was 0.201 to 1 µM in each case.
On to `C=CC(=O)Nc1cc(Nc2ncc(C)c(-n3cc(CN4C[C@@H](O)[C@@H](O)C4)c(C)n3)n2)c(OC)cc1N1CCOCC1` [Compound 25, N-(5-(4-(4-(((3R,4S)-3,4-dihydroxypyrrolidin-1-yl)methyl)-3-methyl-1H-pyrazol-1-yl)-5-methylpyrimidin-2-ylamino)-4-methoxy-2-morpholinophenyl)acrylamide], for which the IC50 (on EGFR mutant T790M; in test [1]; at EGFR mutant L858R; at EGFR mutant L858R/T790M; at EGFR mutant Del19/T790M; against JAK3) was less than 0.02 µM in each case. Further, the IC50 was 0.201 to 1 µM against SYK; more than 1 µM against KDR; more than 1 µM with H2073 (EGFR wildtype); less than 0.02 µM in test [2]; less than 0.02 µM in [3]. Besides, the “Selectivity … vs mutant H2073/PC9 (fold)” value in test [2] was more than 200 fold. Further, the “Selectivity … vs mutant H2073/H1975 (fold)” value in test [3] is recorded as 101-200 fold.
Take `C=CC(=O)Nc1cc(Nc2ncc(C)c(-n3cc(C)c(CN4CC(O)C4)c3)n2)c(OC)cc1N1CCOCC1` [Compound 48, N-(5-(4-(3-((3-hydroxyazetidin-1-yl)methyl)-4-methyl-1H-pyrrol-1-yl)-5-methylpyrimidin-2-ylamino)-4-methoxy-2-morpholinophenyl)acrylamide]: the IC50 at EGFR mutant T790M was less than 0.02 µM; in [1] it was less than 0.02 µM; on EGFR mutant L858R, 0.02 to 0.2 µM; on EGFR mutant L858R/T790M, less than 0.02 µM; on EGFR mutant Del19/T790M, less than 0.02 µM; at JAK3 it was less than 0.02 µM. The IC50 against SYK was 0.201 to 1 µM; on KDR, more than 1 µM; with H2073 (EGFR wildtype), more than 1 µM; in test [2], 0.201 to 1 µM; in test [3], 0.201 to 1 µM. Besides, in test [2], the “Selectivity … vs mutant H2073/PC9 (fold)” value is less than 20 fold. In addition, in test [3], the “Selectivity … vs mutant H2073/H1975 (fold)” value is reported as less than 20 fold.
For `C=CC(=O)Nc1cc(Nc2nccc(-n3cc(CN(C)C)c(C)n3)n2)c(OC)cc1N1CCN(C)CC1` [Compound 47, N-(5-(4-(4-((dimethylamino)methyl)-3-methyl-1H-pyrazol-1-yl)pyrimidin-2-ylamino)-4-methoxy-2-(4-methylpiperazin-1-yl)phenyl)acrylamide], the IC50 (against EGFR mutant T790M; in [1]; at EGFR mutant L858R; at EGFR mutant L858R/T790M; at EGFR mutant Del19/T790M; at JAK3) was less than 0.02 µM each time. The IC50 is 0.201 to 1 µM against SYK and more than 1 µM at KDR.
Turning to `C=CC(=O)Nc1cc(Nc2ncc(C)c(-n3cc(CN4CCC4)cn3)n2)c(OC)cc1N1CCCOCC1` [Compound 40, N-(5-(4-(4-(azetidin-1-ylmethyl)-1H-pyrazol-1-yl)-5-methylpyrimidin-2-ylamino)-4-methoxy-2-(1,4-oxazepan-4-yl)phenyl)acrylamide], the IC50 is less than 0.02 µM against EGFR mutant T790M; less than 0.02 µM in [1]; 0.02 to 0.2 µM at EGFR mutant L858R; less than 0.02 µM at EGFR mutant L858R/T790M; less than 0.02 µM at EGFR mutant Del19/T790M; less than 0.02 µM at JAK3. Further, the IC50 against SYK and against KDR was more than 1 µM in each case.
For `C=CC(=O)Nc1cc(Nc2nccc(-n3cc(CN4CCC4)c(C)n3)n2)c(OC)cc1-c1ccccc1` [Compound 65, N-(4-(4-(4-(azetidin-1-ylmethyl)-3-methyl-1H-pyrazol-1-yl)pyrimidin-2-ylamino)-5-methoxybiphenyl-2-yl)acrylamide], the IC50 on EGFR mutant T790M is 0.201 to 1 µM; in test [1], less than 0.02 µM; at EGFR mutant L858R, 0.02 to 0.2 µM; on EGFR mutant L858R/T790M it was less than 0.02 µM; at EGFR mutant Del19/T790M, less than 0.02 µM; at JAK3, 0.02 to 0.2 µM. Besides, the IC50 on SYK and at KDR was more than 1 µM throughout.
